Measurements from patent US9763445B2, “Safened herbicidal compositions comprising a pyridine carboxylic acid herbicide” (Dow AgroSciences, LLC, priority 2014, dated 2017).

Key:
spring barley (HORVS) = assay: Postemergence greenhouse trial, % visual injury on spring barley; format: in vivo, Hordeum vulgare; conditions: HORVS
How it was run: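 Greenhouse crops at second to third true leaf stage sprayed postemergence at 187 L/ha with herbicide (g ae/ha) plus safener (g ai/ha) in acetone/DMSO diluted into 1.5% v/v Agri-dex. Injury scored visually versus solvent-blank controls after 20-22 d, 0 (none) to 100% (complete kill); expected mixture effects by Colby's equation.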

pigweed (AMARE) = assay: Postemergence greenhouse trial, % visual injury on pigweed; format: in vivo, Amaranthus retroflexus; conditions: AMARE; for % visual injury, Ob: CQC-m 0 g/ha
How it was run: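 Postemergence greenhouse spray (187 L/ha, 1.5% v/v Agri-dex in water, acetone/DMSO stocks) on plants at second–third true leaf stage, ~23/22 °C, 14 h photoperiod; herbicides in g ae/ha, safener cloquintocet-mexyl in g ai/ha. Visual injury 0–100% versus solvent-blank controls after 20–22 d; Colby's equation gave expected mixture effects.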

winter rape (BRSNW) = assay: Postemergence greenhouse trial, % visual injury on winter rape; format: in vivo, Brassica napus; conditions: BRSNW; for % visual injury, Ob: CQC-m 0 g/ha
How it was run: (§1)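 Plants at second or third true leaf stage, greenhouse-grown (14 h photoperiod, ~23/22° C.), sprayed postemergence with compounds alone or with safener cloquintocet-mexyl in 1.5% v/v Agri-dex crop oil at 187 L/ha. Visual injury scored 0–100% versus solvent-blank controls after 20-22 d; expected mixture effects by Colby's equation.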

kochia (KCHSC) = assay: Postemergence greenhouse trial, % visual injury on kochia; format: in vivo, Kochia scoparia; conditions: KCHSC; for % visual injury, Ob: CQC-m 0 g/ha
How it was run: (§2)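 Herbicide rates g ae/ha, safener (cloquintocet-mexyl) rates g ai/ha; spray carrier 1.5% v/v crop oil concentrate, 187 L/ha, 2nd–3rd leaf stage. Rating: visual % injury at 20-22 d.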

[1] = tested on: purple deadnettle (LAMPU); assay: Postemergence greenhouse trial, % visual injury on purple deadnettle; format: in vivo, Lamium purpureum; conditions: LAMPU
Protocol: Seeds of the desired test plant species were planted in Sun Gro MetroMix® 306 planting mixture, which typically has a pH of 6.0 to 6.8 and an organic matter content of about 30 percent, in plastic pots with a surface area of 103.2 square centimeters (cm^2). When required to ensure good germination and healthy plants, a fungicide treatment and/or other chemical or physical treatment was applied. The plants were grown for 7-36 days (d) in a greenhouse with an approximate 14-hour (h) photoperiod which was maintained at about 23° C. during the day and 22° C. during the night. Nutrients and water were added on a regular basis and supplemental lighting was provided with overhead metal halide 1000-Watt lamps as necessary. The plants were employed for testing when they reached the second or third true leaf stage.
Weighed amounts of technical material were dissolved in a volume of 97:3 volume per volume (v/v) acetone/dimethyl sulfoxide (DMSO) to stock solutions. […] The concentrated stock solutions were diluted with an aqueous mixture of 1.5% v/v of Agri-dex crop oil concentrate to provide the appropriate application rates. Compound requirements are based upon a 12 milliliter (mL) application volume at a rate of 187 liters per hectare (L/ha). Stocks solutions of the safeners were prepared following the same procedure. Spray solutions of the safeners and experimental compound mixtures were prepared by adding the stock solutions to the appropriate amount of dilution solution to form a 12 mL spray solution in two-way combinations. Formulated compounds were applied to the plant material with an overhead Mandel track sprayer equipped with 8002E nozzles calibrated to deliver 187 L/ha over an application area of 0.503 square meters (m^2) at a spray height of 18 inches (43 centimeters (cm)) above average plant canopy. Control plants were sprayed in the same manner with the solvent blank. All herbicide application (component a) rates are in g ae/ha and all safener (component b) rates are in g ai/ha.
The treated plants and control plants were placed in a greenhouse as described above and watered by sub-irrigation to prevent wash-off of the test compounds. After 20-22 d, the condition of the test plants as compared with that of the control plants was determined visually and scored on a scale of 0 to 100 percent where 0 corresponds to no injury and 100 corresponds to complete kill. […] Colby's equation was used to determine the herbicidal effects expected from the mixtures. […]

[2] = tested on: bird's-eye speedwell (VERPE); assay: Postemergence greenhouse trial, % visual injury on bird's-eye speedwell; format: in vivo, Veronica persica; conditions: VERPE, CQC-m 0 g/ha
How it was run: as §2

thistle (CIRAR) = assay: Postemergence greenhouse trial, % visual injury on thistle; format: in vivo, Cirsium arvense; conditions: Cirsium arvense, post-emergence, CIRAR, CQC-m 0, read-out: % visual injury, Ob
How it was run: as §1

[3] = compound 4.375 g/ha, CQC-m 0 g/ha
[4] = compound 8.75 g/ha, CQC-m 0 g/ha
[5] = compound 17.5 g/ha, CQC-m 0 g/ha

Question: With Nc1cc(-c2ccc3cc[nH]c3c2F)nc(C(=O)O)c1Cl [compound 15] as the compound, how does the “% visual injury, Ob” value (spring barley (HORVS); [3]) read?
Answer: 0%

Question: And the “% visual injury, Ob” value (spring barley (HORVS); [4])?
Answer: 0%

Question: And the “% visual injury, Ob” value (spring barley (HORVS); [5])?
Answer: 0%

Question: What about the “% visual injury, Ob” value (spring barley (HORVS); compound 35 g/ha, CQC-m 0 g/ha) of the same compound?
Answer: 10%

Question: And the “% visual injury, Ob” value (spring barley (HORVS); compound 70 g/ha, CQC-m 0 g/ha)?
Answer: 10%

Question: And the “% visual injury, Ob” value (pigweed (AMARE); compound 4.375 g/ha)?
Answer: 70%

Question: What about the “% visual injury, Ob” value (pigweed (AMARE); compound 8.75 g/ha) of the same compound?
Answer: 100%

Question: And the “% visual injury, Ob” value (pigweed (AMARE); compound 17.5 g/ha)?
Answer: 100%

Question: What about the “% visual injury, Ob” value (pigweed (AMARE); compound 35 g/ha) of the same compound?
Answer: 100%

Question: What about the “% visual injury, Ob” value (winter rape (BRSNW); compound 4.375 g/ha) of the same compound?
Answer: 40%

Question: What about the “% visual injury, Ob” value (winter rape (BRSNW); compound 8.75 g/ha) of the same compound?
Answer: 40%

Question: What about the “% visual injury, Ob” value (winter rape (BRSNW); compound 17.5 g/ha) of the same compound?
Answer: 50%

Question: And the “% visual injury, Ob” value (winter rape (BRSNW); compound 35 g/ha)?
Answer: 70%

Question: And the “% visual injury, Ob” value (winter rape (BRSNW); compound 70 g/ha)?
Answer: 60%

Question: What about the “% visual injury, Ob” value (kochia (KCHSC); compound 4.375 g/ha) of the same compound?
Answer: 10%

Question: What about the “% visual injury, Ob” value (kochia (KCHSC); compound 8.75 g/ha) of the same compound?
Answer: 10%

Question: And the “% visual injury, Ob” value (kochia (KCHSC); compound 17.5 g/ha)?
Answer: 50%

Question: What about the “% visual injury, Ob” value (kochia (KCHSC); compound 35 g/ha) of the same compound?
Answer: 60%

Question: And the “% visual injury, Ob” value (kochia (KCHSC); compound 70 g/ha)?
Answer: 75%

Question: What about the “% visual injury, Ob” value [1, 3] of the same compound?
Answer: 93%

Question: What about the “% visual injury, Ob” value [1, 4] of the same compound?
Answer: 95%

Question: And the “% visual injury, Ob” value [1, 5]?
Answer: 93%

Question: What about the “% visual injury, Ob” value ([1]; compound 35 g/ha, CQC-m 0 g/ha) of the same compound?
Answer: 93%

Question: What about the “% visual injury, Ob” value ([1]; compound 70 g/ha, CQC-m 0 g/ha) of the same compound?
Answer: 95%

Question: What about the “% visual injury, Ob” value ([2]; compound 4.375 g/ha) of the same compound?
Answer: 85%

Question: What about the “% visual injury, Ob” value ([2]; compound 8.75 g/ha) of the same compound?
Answer: 85%

Question: And the “% visual injury, Ob” value ([2]; compound 17.5 g/ha)?
Answer: 90%

Question: What about the “% visual injury, Ob” value ([2]; compound 35 g/ha) of the same compound?
Answer: 93%

Question: What about the “% visual injury, Ob” value ([2]; compound 70 g/ha) of the same compound?
Answer: 95%

Question: What does the source list for CCCCOC(=O)c1nc(-c2ccc3cc[nH]c3c2F)c(F)c(N)c1Cl [compound 9]?
Answer: % visual injury, Ob (spring barley (HORVS); compound 4.380 g/ha, CQC-m 0): 10%; % visual injury, Ob (spring barley (HORVS); compound 8.75 g/ha, CQC-m 0): 20%; % visual injury, Ob (spring barley (HORVS); compound 17.5 g/ha, CQC-m 0): 30%; % visual injury, Ob (spring barley (HORVS); compound 35 g/ha, CQC-m 0): 40%; % visual injury, Ob (spring barley (HORVS); compound 70 g/ha, CQC-m 0): 50%; pest or weed control at 4.38 g/ha (pigweed (AMARE); Amaranthus retroflexus, post-emergence, compound 4.380 g/ha, CQC-m 0, read-out: % visual injury, Ob): 10%; pest or weed control at 8.75 g/ha (pigweed (AMARE); Amaranthus retroflexus, post-emergence, compound 8.75 g/ha, CQC-m 0, read-out: % visual injury, Ob): 20%; pest or weed control at 17.5 g/ha (pigweed (AMARE); Amaranthus retroflexus, post-emergence, compound 17.5 g/ha, CQC-m 0, read-out: % visual injury, Ob): 50%; pest or weed control at 70 g/ha (pigweed (AMARE); Amaranthus retroflexus, post-emergence, compound 70 g/ha, CQC-m 0, read-out: % visual injury, Ob): 100%; plant injury at 4.38 g/ha (winter rape (BRSNW); Brassica napus, post-emergence, compound 4.380 g/ha, CQC-m 0, read-out: % visual injury, Ob): 60%; plant injury at 8.75 g/ha (winter rape (BRSNW); Brassica napus, post-emergence, compound 8.75 g/ha, CQC-m 0, read-out: % visual injury, Ob): 60%; plant injury at 17.5 g/ha (winter rape (BRSNW); Brassica napus, post-emergence, compound 17.5 g/ha, CQC-m 0, read-out: % visual injury, Ob): 90%; plant injury at 35 g/ha (winter rape (BRSNW); Brassica napus, post-emergence, compound 35 g/ha, CQC-m 0, read-out: % visual injury, Ob): 98%; plant injury at 70 g/ha (winter rape (BRSNW); Brassica napus, post-emergence, compound 70 g/ha, CQC-m 0, read-out: % visual injury, Ob): 100%; pest or weed control at 4.38 g/ha (thistle (CIRAR); compound 4.380 g/ha): 10%; pest or weed control at 8.75 g/ha (thistle (CIRAR); compound 8.75 g/ha): 30%; pest or weed control at 17.5 g/ha (thistle (CIRAR); compound 17.5 g/ha): 70%; pest or weed control at 35 g/ha (thistle (CIRAR); compound 35 g/ha): 95%; pest or weed control at 70 g/ha (thistle (CIRAR); compound 70 g/ha): 97%; pest or weed control at 4.38 g/ha (kochia (KCHSC); Bassia scoparia, post-emergence, compound 4.380 g/ha, CQC-m 0, read-out: % visual injury, Ob): 60%; pest or weed control at 8.75 g/ha (kochia (KCHSC); Bassia scoparia, post-emergence, compound 8.75 g/ha, CQC-m 0, read-out: % visual injury, Ob): 60%; pest or weed control at 17.5 g/ha (kochia (KCHSC); Bassia scoparia, post-emergence, compound 17.5 g/ha, CQC-m 0, read-out: % visual injury, Ob): 85%; pest or weed control at 35 g/ha (kochia (KCHSC); Bassia scoparia, post-emergence, compound 35 g/ha, CQC-m 0, read-out: % visual injury, Ob): 100%; pest or weed control at 70 g/ha (kochia (KCHSC); Bassia scoparia, post-emergence, compound 70 g/ha, CQC-m 0, read-out: % visual injury, Ob): 100%; % visual injury, Ob ([1]; compound 4.380 g/ha, CQC-m 0): 83%; % visual injury, Ob ([1]; compound 8.75 g/ha, CQC-m 0): 90%; % visual injury, Ob ([1]; compound 17.5 g/ha, CQC-m 0): 100%; % visual injury, Ob ([1]; compound 35 g/ha, CQC-m 0): 100%; % visual injury, Ob ([1]; compound 70 g/ha, CQC-m 0): 100%
